Results on 2 compounds are retold here after patent publication US20100184596A1, “METHOD FOR THE CONTROL OF WEEDS IN TURF” (SYNGENTA CROP PROTECTION, INC., priority 2007, published 2010).

The test relates to turfgrass. The test can be described thus: Example B4, conclusion in words. The settings on record: applied with Formula I. The format is in vivo. As for the experimental part: The phytotoxicity to turfgrass of the compound of formula I in combination with various safeners was tested. The combinations were applied by post emergence spray application. Percentage phytotoxicity assessments were taken at various timepoints. The safeners tested in these trials were cloquintocet-mexyl, cyprosulfamide, a compound of formula 2.3, and isoxadifen-ethyl.

Consider `CNC(=O)Nc1ccc(S(=O)(=O)NC(=O)c2ccccc2OC)cc1` [Formula 2.3], for which the “safener effectiveness, in words” value is “particular effective safeners”. With `COc1ccccc1C(=O)NS(=O)(=O)c1ccc(C(=O)NC2CC2)cc1` [cyprosulfamide], the “safener effectiveness, in words” value is recorded as “particular effective safeners”.
